Earlier results as cited in patent publication US20220023282A1 (priority 2018, published 2022).

Tested on: Mycobacterium tuberculosis isolates
Conditions: variety of Mycobacterium tuberculosis isolates, regardless of resistance to other anti-TB drugs; cited from earlier work

Question: Which “Minimum Inhibitory Concentration (MIC) 99” value does the source give for `COc1nc2ccc(Br)cc2cc1[C@@H](c1ccccc1)[C@@](O)(CCN(C)C)c1cccc2ccccc12` [bedaquiline, (1R,2S)-1-(6-bromo-2-methoxyquinolin-3-yl)-4-(dimethylamino)-2-(naphthalen-1-yl)-1-phenylbutan-2-ol] here?
Answer: 0.01 to 0.1 µg/mL
